Data: patent US12064503B2, “High-potency vitamin C and sugar alcohol topical formulations” (ICB (an ABC), LLC, priority 2020, dated 2024)

Legend:
[1] = test system: skin; details: cream containing 10% MAP; cited from earlier work
[2] = test system: skin; details: topical; cited from earlier work
[3] = test system: skin; details: concentrations of 0.2%; clinical data from SEPPIC; cited from earlier work
[4] = test system: skin; details: topical use of 4% HQ or 5% Vitamin C; cited from earlier work
[5] = Solubility in non-aqueous skin-compatible solvents; details: neat solvent

O=C1O[C@H]([C@@H](O)CO)C([O-])=C1OP(=O)([O-])[O-].O=C1O[C@H]([C@@H](O)CO)C([O-])=C1OP(=O)([O-])[O-].[Mg+2].[Mg+2].[Mg+2] [MAP, magnesium ascorbyl phosphate]
brighten/lighten the appearance of the skin [1]: effectively brighten/lighten

CC(C)(CO)[C@@H](O)C(=O)NCCCO [Panthenol]
concentration at which inhibition of transepidermal water loss is apparent [2]: ≥ 1%

madecassoside
ability to reduce erythema (skin redness) [3]: desirable ability to reduce erythema

O=C1O[C@H]([C@@H](O)CO)C(O)=C1O [AA, L-ascorbic acid]
improvement [4]: 62.5%

Oc1ccc(O)cc1 [HQ, hydroquinone]
improvement [4]: 93%
side-effects [4]: 68.7%

CO[C@H]1CO[C@H]2[C@@H]1OC[C@H]2OC [Dimethyl isosorbide]
ability of the solvent to solubilize ascorbic acid [5]: very limited
